Structures are written as SMILES.

Results on 30 compounds are retold here after patent US12391679B2, “Benzamide-substituted bicyclic imidazo- and pyrazolo-fused -pyridine, -pyrimide, and -pyridazine compounds for treatment of inflammatory diseases” (ONCO3R Therapeutics BV, priority 2019, dated 2025).

This test concerns LPS-induced TNFα in monocytes. Briefly: Monocytes assay: LPS-triggered TNFα (ELISA). To be noted: LPS-triggered TNFα inhibition. It is filed as cell-based, human. The method, boiled down:
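CD14+ monocytes were magnetically isolated from human buffy-coat PBMCs, preincubated with compound 1 h at 37 °C (0.2% DMSO), then stimulated with LPS at 200 ng/mL for 4 h. Supernatant TNFα was measured by luminescent sandwich ELISA; percentage inhibition was calculated against controls for each concentration.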
(In general: An ELISA detects its analyte on a solid surface through an enzyme-linked reagent.)

Broadly, the EC50 is the concentration needed to bring the measured effect to its halfway point. `COC(=O)C1(c2ccn3c(-c4cc(OC)c(C(=O)NC5CC5)c(OC(F)F)c4)cnc3c2)CC1` [Cpd 113, methyl 1-[3-[4-(cyclopropylcarbamoyl)-3-(difluoromethoxy)-5-methoxy-phenyl]imidazo[1,2-a]pyridin-7-yl]cyclopropanecarboxylate] gave an EC50 (Homo sapiens, Monocyte) of 100 to 1000 nM.

Regarding `COc1cc(-c2cnc3cc(C4(O)CCC4)ccn23)cc(OC(F)F)c1C(=O)N[C@@H]1C[C@@H]1F` [Cpd 205, 2-(difluoromethoxy)-N-[(1R,2S)-2-fluorocyclopropyl]-4-[7-(1-hydroxycyclobutyl)imidazo[1,2-a]pyridin-3-yl]-6-methoxy-benzamide], the EC50 (Homo sapiens, Monocyte) lay within 100 to 1000 nM.

Take `COc1cc(-c2cnc3cc(C4CCCN(C(=O)OC(C)(C)C)C4)ccn23)cc(OC(F)F)c1C(=O)NC1CC1` (stereo not drawn) [Cpd 64, tert-butyl 3-[3-[4-(cyclopropylcarbamoyl)-3-(difluoromethoxy)-5-methoxy-phenyl]imidazo[1,2-a]pyridin-7-yl]piperidine-1-carboxylate]: the EC50 (Homo sapiens, Monocyte) lay within 100 to 1000 nM.

On to `COCC(C)(C#N)c1ccn2c(-c3cc(OC)c(C(=O)NC4CC4)c(OC(F)F)c3)cnc2c1` (stereo not drawn) [Cpd 195, 4-[7-(1-cyano-2-methoxy-1-methyl-ethyl)imidazo[1,2-a]pyridin-3-yl]-N-cyclopropyl-2-(difluoromethoxy)-6-methoxy-benzamide], for which, under “Homo sapiens, Monocyte”, the EC50 lay in the range of 100 to 1000 nM.

As to `COc1cc(-c2cnc3cc([C@@](C)(C#N)CO)ccn23)cc(OC(F)F)c1C(=O)NC1CC1` (single isomer, unassigned) [Cpd 190, 4-[7-(1-cyano-2-hydroxy-1-methyl-ethyl)imidazo[1,2-a]pyridin-3-yl]-N-cyclopropyl-2-(difluoromethoxy)-6-methoxy-benzamide], the EC50 lay within 1000 to 5000 nM.

The compound `COc1cc(-c2cnc3cc(C4(C#N)COC4)ccn23)cc(OC(F)F)c1C(=O)NC1CC1` [Cpd 117, 4-[7-(3-cyanooxetan-3-yl)imidazo[1,2-a]pyridin-3-yl]-N-cyclopropyl-2-(difluoromethoxy)-6-methoxy-benzamide] gave an EC50 (Homo sapiens, Monocyte) of 100 to 1000 nM.

Regarding `COc1cc(-c2cnc3cc(C4CCCN4C)ccn23)cc(OC(F)F)c1C(=O)NC1CC1` (stereo not drawn) [Cpd 171, N-cyclopropyl-2-(difluoromethoxy)-6-methoxy-4-[7-(1-methylpyrrolidin-2-yl)imidazo[1,2-a]pyridin-3-yl]benzamide], the EC50 (Homo sapiens, Monocyte) is 1000 to 5000 nM.

On to `COc1cc(-c2cnc3cc(C(O)CC#N)ccn23)cc(OC(F)F)c1C(=O)NC1CC1` (stereo not drawn) [Cpd 175, 4-[7-(2-cyano-1-hydroxy-ethyl)imidazo[1,2-a]pyridin-3-yl]-N-cyclopropyl-2-(difluoromethoxy)-6-methoxy-benzamide], for which, where the note is “Homo sapiens, Monocyte”, the EC50 lay within 1000 to 5000 nM.

For `CCC(C)(O)c1ccn2c(-c3cc(OC)c(C(=O)NC4CC4)c(OC(F)F)c3)cnc2c1` (stereo not drawn) [Cpd 137, N-cyclopropyl-2-(difluoromethoxy)-4-[7-(1-hydroxy-1-methyl-propyl)imidazo[1,2-a]pyridin-3-yl]-6-methoxy-benzamide], the EC50 (Homo sapiens, Monocyte) was 100 to 1000 nM.

Compound `COc1cc(-c2cnc3cc(C4CCC4)c(F)cn23)cc(OC(F)F)c1C(=O)NC1CC1` [Cpd 168, 4-(7-cyclobutyl-6-fluoro-imidazo[1,2-a]pyridin-3-yl)-N-cyclopropyl-2-(difluoromethoxy)-6-methoxy-benzamide] came in with an EC50 (Homo sapiens, Monocyte) of 100 to 1000 nM.

For the setting “Homo sapiens, Monocyte”, `COc1cc(-c2cnc3cc(C4(C#N)CC4)ccn23)cc(OC(F)F)c1C(=O)NC1CC1` [Cpd 33, 4-[7-(1-cyanocyclopropyl)imidazo[1,2-a]pyridin-3-yl]-N-cyclopropyl-2-(difluoromethoxy)-6-methoxy-benzamide] had an EC50 of 0.1 to 100 nM.

The compound `CCOC(C)(C)c1ccn2c(-c3cc(OC)c(C(=O)NC4CC4)c(OC(F)F)c3)cnc2c1` [Cpd 128, N-cyclopropyl-2-(difluoromethoxy)-4-[7-(1-ethoxy-1-methyl-ethyl)imidazo[1,2-a]pyridin-3-yl]-6-methoxy-benzamide] showed an EC50 (Homo sapiens, Monocyte) of 100 to 1000 nM.

On to `COc1cc(-c2cnn3cc(C4(O)CCC4)ccc23)cc(OC(F)F)c1C(=O)N[C@@H]1C[C@@H]1F` [Cpd 266, 2-(difluoromethoxy)-N-[(1R,2S)-2-fluorocyclopropyl]-4-[6-(1-hydroxycyclobutyl)pyrazolo[1,5-a]pyridin-3-yl]-6-methoxy-benzamide], for which the EC50 (Homo sapiens, Monocyte) was 100 to 1000 nM.

As for `COc1cc(-c2cnc3cc(C(C)(C)C#N)ccn23)cc(OC(F)F)c1C(=O)NCC(F)F` [Cpd 70, 4-[7-(1-cyano-1-methyl-ethyl)imidazo[1,2-a]pyridin-3-yl]-N-(2,2-difluoroethyl)-2-(difluoromethoxy)-6-methoxy-benzamide], the EC50 (Homo sapiens, Monocyte) lay within 100 to 1000 nM.

For `COc1cc(-c2cnc3cc(C(C)(C)CN4CCOCC4)ccn23)cc(OC(F)F)c1C(=O)NC1CC1` [Cpd 160, N-cyclopropyl-2-(difluoromethoxy)-4-[7-(1,1-dimethyl-2-morpholino-ethyl)imidazo[1,2-a]pyridin-3-yl]-6-methoxy-benzamide], the EC50 (Homo sapiens, Monocyte) is 100 to 1000 nM.

As to `COc1cc(-c2cnc3cc(C(C)(C)C#N)ccn23)cc(OC)c1C(=O)NC1CC1` [Cpd 28, 4-[7-(1-cyano-1-methyl-ethyl)imidazo[1,2-a]pyridin-3-yl]-N-cyclopropyl-2,6-dimethoxy-benzamide], for the setting “Homo sapiens, Monocyte”, the EC50 fell in the range of 100 to 1000 nM.

The compound `COc1cc(-c2cnc3cc(C(C)N4CCCCC4)ccn23)cc(OC(F)F)c1C(=O)NC1CC1` (stereo not drawn) [Cpd 146, N-cyclopropyl-2-(difluoromethoxy)-6-methoxy-4-[7-[1-(1-piperidyl)ethyl]imidazo[1,2-a]pyridin-3-yl]benzamide] had an EC50 (Homo sapiens, Monocyte) of 1000 to 5000 nM.

With `COc1cc(-c2cnn3cc(C4COCCO4)ccc23)cc(OC(F)F)c1C(=O)NC1CC1` (stereo not drawn) [Cpd 232, N-cyclopropyl-2-(difluoromethoxy)-4-[6-(1,4-dioxan-2-yl)pyrazolo[1,5-a]pyridin-3-yl]-6-methoxy-benzamide], the EC50 (Homo sapiens, Monocyte) fell in the range of 100 to 1000 nM.

`COc1cc(-c2cnc3cc(C4CN(C(C)=O)C4)ccn23)cc(OC(F)F)c1C(=O)NC1CC1` [Cpd 63, 4-[7-(1-acetylazetidin-3-yl)imidazo[1,2-a]pyridin-3-yl]-N-cyclopropyl-2-(difluoromethoxy)-6-methoxy-benzamide]: for the setting “Homo sapiens, Monocyte”, the EC50 lay within 100 to 1000 nM.

In turn, `COc1cc(-c2cnn3cc(C4COC4)ccc23)cc(OC(F)F)c1C(=O)N[C@@H]1C[C@@H]1F` [Cpd 218, 2-(difluoromethoxy)-N-[(1R,2S)-2-fluorocyclopropyl]-6-methoxy-4-[6-(oxetan-3-yl)pyrazolo[1,5-a]pyridin-3-yl]benzamide] registered an EC50 (Homo sapiens, Monocyte) of 0.1 to 100 nM.

Where the note is “Homo sapiens, Monocyte”, `[2H]C([2H])([2H])C(C#N)(c1ccc2c(-c3cc(OC)c(C(=O)N[C@@H]4C[C@@H]4F)c(OC(F)F)c3)cnn2c1)C([2H])([2H])[2H]` [Cpd 275, 4-[6-[1-cyano-2,2,2-trideuterio-1-(trideuteriomethyl)ethyl]pyrazolo[1,5-a]pyridin-3-yl]-2-(difluoromethoxy)-N-[(1R,2S)-2-fluorocyclopropyl]-6-methoxy-benzamide] returned an EC50 of 100 to 1000 nM.

As to `COc1cc(-c2cnc3cc(C(C)(O)C4CC4)ccn23)cc(OC(F)F)c1C(=O)NC1CC1` (stereo not drawn) [Cpd 138, N-cyclopropyl-4-[7-(1-cyclopropyl-1-hydroxy-ethyl)imidazo[1,2-a]pyridin-3-yl]-2-(difluoromethoxy)-6-methoxy-benzamide], where the note is “Homo sapiens, Monocyte”, the half-maximal effective concentration (EC50) is 100 to 1000 nM.

For the compound `COc1cc(-c2cnn3cc(C(C)(C)CN4CCOCC4)ccc23)cc(OC(F)F)c1C(=O)N[C@@H]1C[C@@H]1F` [Cpd 269, 2-(difluoromethoxy)-4-[6-(1,1-dimethyl-2-morpholino-ethyl)pyrazolo[1,5-a]pyridin-3-yl]-N-[(1R,2S)-2-fluorocyclopropyl]-6-methoxy-benzamide], the EC50 (Homo sapiens, Monocyte) lay in the range of 100 to 1000 nM.

With `COc1cc(-c2cnn3cc(C(C)(C)C#N)ccc23)cc(OC(F)F)c1C(=O)N[C@@H]1C[C@@H]1F` [Cpd 219, 4-[6-(1-cyano-1-methyl-ethyl)pyrazolo[1,5-a]pyridin-3-yl]-2-(difluoromethoxy)-N-[(1R,2S)-2-fluorocyclopropyl]-6-methoxy-benzamide], the EC50 (Homo sapiens, Monocyte) fell in the range of 0.1 to 100 nM.

With `COc1cc(-c2cnc3cc(C(C)(C)C#N)ccn23)cc(OC(F)F)c1C(=O)N1CC(F)(F)C1` [Cpd 69, 2-[3-[4-(3,3-difluoroazetidine-1-carbonyl)-3-(difluoromethoxy)-5-methoxy-phenyl]imidazo[1,2-a]pyridin-7-yl]-2-methyl-propanenitrile], the EC50 (Homo sapiens, Monocyte) is 100 to 1000 nM.

`COc1cc(-c2cnc3cc(C(F)(F)CO)ccn23)cc(OC(F)F)c1C(=O)NC1CC1` [Cpd 136, N-cyclopropyl-4-[7-(1,1-difluoro-2-hydroxy-ethyl)imidazo[1,2-a]pyridin-3-yl]-2-(difluoromethoxy)-6-methoxy-benzamide] gave a half-maximal effective concentration (EC50) (Homo sapiens, Monocyte) of 100 to 1000 nM.

Compound `COc1cc(-c2cnc3cc(C(C)(C)N)ccn23)cc(OC(F)F)c1C(=O)NC1CC1` [Cpd 106, 4-[7-(1-amino-1-methyl-ethyl)imidazo[1,2-a]pyridin-3-yl]-N-cyclopropyl-2-(difluoromethoxy)-6-methoxy-benzamide] displayed an EC50 (Homo sapiens, Monocyte) of 100 to 1000 nM.

`COc1cc(-c2cnc3cc(C4COC4)ccn23)cc(OC(F)F)c1C(=O)NC1CC1` [Cpd 174, N-cyclopropyl-2-(difluoromethoxy)-6-methoxy-4-[7-(oxetan-3-yl)imidazo[1,2-a]pyridin-3-yl]benzamide] showed an EC50 (Homo sapiens, Monocyte) of 100 to 1000 nM.

With `COc1cc(-c2cnc3cc(C(C)(O)C(F)(F)F)ccn23)cc(OC(F)F)c1C(=O)NC1CC1` (stereo not drawn) [Cpd 129, N-cyclopropyl-2-(difluoromethoxy)-6-methoxy-4-[7-(2,2,2-trifluoro-1-hydroxy-1-methyl-ethyl)imidazo[1,2-a]pyridin-3-yl]benzamide], the EC50 (Homo sapiens, Monocyte) lay in the range of 100 to 1000 nM.

`COc1cc(-c2cnc3cc(C(C)(C)O)ccn23)cc(OC(F)F)c1C(=O)N[C@@H]1C[C@@H]1F` [Cpd 211, 2-(difluoromethoxy)-N-[(1R,2S)-2-fluorocyclopropyl]-4-[7-(1-hydroxy-1-methyl-ethyl)imidazo[1,2-a]pyridin-3-yl]-6-methoxy-benzamide]: the EC50 (Homo sapiens, Monocyte) is 100 to 1000 nM.
